From ChEMBL document CHEMBL5154811, “Discovery of SPH5030, a Selective, Potent, and Irreversible Tyrosine Kinase Inhibitor for HER2-Amplified and HER2-Mutant Cancer Treatment” (J Med Chem, 2022)

Tests used:
[1] = biological target: Epidermal growth factor receptor (Homo sapiens, UniProt P00533); assay: Inhibition of wild type human N-terminal GST tagged EGFR (669 to 1210 residues) expressed in Sf21 insect cells incubated for 30 mins in presence of ATP by HTRF analysis
[2] = biological target: Receptor tyrosine-protein kinase erbB-2 (Homo sapiens, UniProt P04626); assay: Inhibition of wild type human GST-tagged HER2 (676 to end residues) expressed in baculovirus infected Sf9 cells incubated for 30 mins in presence of ATP by HTRF analysis
Sequence of Receptor tyrosine-protein kinase erbB-2 (P04626 whole entry): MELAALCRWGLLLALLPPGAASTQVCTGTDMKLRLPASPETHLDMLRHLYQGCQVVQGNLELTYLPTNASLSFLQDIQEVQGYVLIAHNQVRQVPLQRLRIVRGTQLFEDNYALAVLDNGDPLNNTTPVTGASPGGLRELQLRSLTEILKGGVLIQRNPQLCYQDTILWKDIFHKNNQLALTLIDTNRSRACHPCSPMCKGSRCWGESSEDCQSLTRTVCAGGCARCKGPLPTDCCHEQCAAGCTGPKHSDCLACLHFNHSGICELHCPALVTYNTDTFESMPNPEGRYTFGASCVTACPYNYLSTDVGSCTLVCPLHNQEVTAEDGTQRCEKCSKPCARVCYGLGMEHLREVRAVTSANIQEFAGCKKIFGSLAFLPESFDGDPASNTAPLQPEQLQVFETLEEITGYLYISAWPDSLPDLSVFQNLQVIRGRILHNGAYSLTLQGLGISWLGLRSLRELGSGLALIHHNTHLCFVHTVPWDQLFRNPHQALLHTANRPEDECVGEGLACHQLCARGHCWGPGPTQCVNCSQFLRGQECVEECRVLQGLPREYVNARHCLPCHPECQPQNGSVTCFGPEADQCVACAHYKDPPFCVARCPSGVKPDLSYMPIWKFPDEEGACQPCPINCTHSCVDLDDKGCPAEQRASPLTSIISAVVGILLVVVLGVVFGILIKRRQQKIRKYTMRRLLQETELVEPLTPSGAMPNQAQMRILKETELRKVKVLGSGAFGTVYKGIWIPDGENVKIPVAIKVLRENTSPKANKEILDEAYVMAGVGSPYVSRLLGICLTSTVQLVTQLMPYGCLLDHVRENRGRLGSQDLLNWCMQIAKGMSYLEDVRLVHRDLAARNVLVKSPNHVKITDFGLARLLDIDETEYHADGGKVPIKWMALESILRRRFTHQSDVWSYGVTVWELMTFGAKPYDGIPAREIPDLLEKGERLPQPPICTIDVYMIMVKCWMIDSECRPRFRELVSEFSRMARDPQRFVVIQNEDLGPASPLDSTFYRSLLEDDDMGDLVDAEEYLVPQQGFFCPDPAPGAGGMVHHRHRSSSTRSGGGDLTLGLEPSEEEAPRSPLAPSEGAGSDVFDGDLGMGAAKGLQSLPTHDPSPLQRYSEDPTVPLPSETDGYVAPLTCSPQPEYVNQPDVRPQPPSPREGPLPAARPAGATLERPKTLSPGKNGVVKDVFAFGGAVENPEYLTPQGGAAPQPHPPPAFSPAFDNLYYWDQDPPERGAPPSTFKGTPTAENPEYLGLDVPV

[3] = Metabolic stability in human liver microsomes assessed as half life at 1 uM preincubated for 5 mins followed by NADPH addition by LC-MS/MS analysis; assay type: ADME, Microsome
[4] = Metabolic stability in human liver microsomes assessed as intrinsic clearance at 1 uM preincubated for 5 mins followed by NADPH addition by LC-MS/MS analysis; assay type: ADME, Microsome; conditions: read-out: CLH
BT-474 = assay: Antiproliferative activity against human BT-474 cells assessed as inhibition of cell growth incubated for 72 hrs by Celltiter-Glo assay; assay type: functional, cell-based; conditions: BT-474, 72 h
NCI-N87 = assay: Antiproliferative activity against human NCI-N87 cells assessed as inhibition of cell growth incubated for 72 hrs by Celltiter-Glo assay; assay type: functional, cell-based; conditions: NCI-N87, 72 h
[5] = Tmax in ICR mouse at 10 mg/kg, po measured upto 1440 mins by LC/MS/MS analysis; assay type: ADME, organism-based; conditions: in vivo
[6] = AUC (0 to t) in ICR mouse at 10 mg/kg, po measured upto 1440 mins by LC/MS/MS analysis; assay type: ADME, organism-based; parameters: time < 1440 min, dose 10 mg/kg, route po; conditions: in vivo
[7] = Oral bioavailability in ICR mouse at 10 mg/kg measured upto 1440 mins by LC/MS/MS analysis; assay type: ADME, organism-based; conditions: in vivo
[8] = Oral bioavailability in Sprague-Dawley rat at 10 mg/kg measured upto 1440 mins by LC/MS/MS analysis; assay type: ADME, organism-based; conditions: in vivo
[9] = Clearance in Sprague-Dawley rat at 3 mg/kg, iv measured upto 1440 mins by LC/MS/MS analysis; assay type: ADME, organism-based; conditions: in vivo
[10] = Tmax in Sprague-Dawley rat at 10 mg/kg, po measured upto 1440 mins by LC/MS/MS analysis; assay type: ADME, organism-based; conditions: in vivo
[11] = Half life in Sprague-Dawley rat at 10 mg/kg, po measured upto 1440 mins by LC/MS/MS analysis; assay type: ADME, organism-based; conditions: in vivo
[12] = Half life in ICR mouse at 3 mg/kg, iv measured upto 1440 mins by LC/MS/MS analysis; assay type: ADME, organism-based; conditions: in vivo
[13] = Volume of distribution at steady state in ICR mouse at 3 mg/kg, iv measured upto 1440 mins by LC/MS/MS analysis; assay type: ADME, organism-based; conditions: in vivo, read-out: Vdss
[14] = Half life in ICR mouse at 10 mg/kg, po measured upto 1440 mins by LC/MS/MS analysis; assay type: ADME, organism-based; conditions: in vivo
[15] = AUC (0 to t) in Sprague-Dawley rat at 10 mg/kg, po measured upto 1440 mins by LC/MS/MS analysis; assay type: ADME, organism-based; parameters: dose 10 mg/kg, time < 1440 min, route po; conditions: in vivo
[16] = Half life in Sprague-Dawley rat at 3 mg/kg, iv measured upto 1440 mins by LC/MS/MS analysis; assay type: ADME, organism-based; conditions: in vivo
[17] = Volume of distribution at steady state in Sprague-Dawley rat at 3 mg/kg, iv measured upto 1440 mins by LC/MS/MS analysis; assay type: ADME, organism-based; conditions: in vivo, read-out: Vdss
[18] = Clearance in ICR mouse at 3 mg/kg, iv measured upto 1440 mins by LC/MS/MS analysis; assay type: ADME, organism-based; conditions: in vivo
[19] = Cmax in Sprague-Dawley rat at 10 mg/kg, po measured upto 1440 mins by LC/MS/MS analysis; assay type: ADME, organism-based; parameters: time < 1440 min, dose 10 mg/kg, route po; conditions: in vivo
[20] = Cmax in ICR mouse at 10 mg/kg, po measured upto 1440 mins by LC/MS/MS analysis; assay type: ADME, organism-based; parameters: dose 10 mg/kg, time < 1440 min, route po; conditions: in vivo

Sequence of Epidermal growth factor receptor (P00533 whole entry, the tested form may be a part): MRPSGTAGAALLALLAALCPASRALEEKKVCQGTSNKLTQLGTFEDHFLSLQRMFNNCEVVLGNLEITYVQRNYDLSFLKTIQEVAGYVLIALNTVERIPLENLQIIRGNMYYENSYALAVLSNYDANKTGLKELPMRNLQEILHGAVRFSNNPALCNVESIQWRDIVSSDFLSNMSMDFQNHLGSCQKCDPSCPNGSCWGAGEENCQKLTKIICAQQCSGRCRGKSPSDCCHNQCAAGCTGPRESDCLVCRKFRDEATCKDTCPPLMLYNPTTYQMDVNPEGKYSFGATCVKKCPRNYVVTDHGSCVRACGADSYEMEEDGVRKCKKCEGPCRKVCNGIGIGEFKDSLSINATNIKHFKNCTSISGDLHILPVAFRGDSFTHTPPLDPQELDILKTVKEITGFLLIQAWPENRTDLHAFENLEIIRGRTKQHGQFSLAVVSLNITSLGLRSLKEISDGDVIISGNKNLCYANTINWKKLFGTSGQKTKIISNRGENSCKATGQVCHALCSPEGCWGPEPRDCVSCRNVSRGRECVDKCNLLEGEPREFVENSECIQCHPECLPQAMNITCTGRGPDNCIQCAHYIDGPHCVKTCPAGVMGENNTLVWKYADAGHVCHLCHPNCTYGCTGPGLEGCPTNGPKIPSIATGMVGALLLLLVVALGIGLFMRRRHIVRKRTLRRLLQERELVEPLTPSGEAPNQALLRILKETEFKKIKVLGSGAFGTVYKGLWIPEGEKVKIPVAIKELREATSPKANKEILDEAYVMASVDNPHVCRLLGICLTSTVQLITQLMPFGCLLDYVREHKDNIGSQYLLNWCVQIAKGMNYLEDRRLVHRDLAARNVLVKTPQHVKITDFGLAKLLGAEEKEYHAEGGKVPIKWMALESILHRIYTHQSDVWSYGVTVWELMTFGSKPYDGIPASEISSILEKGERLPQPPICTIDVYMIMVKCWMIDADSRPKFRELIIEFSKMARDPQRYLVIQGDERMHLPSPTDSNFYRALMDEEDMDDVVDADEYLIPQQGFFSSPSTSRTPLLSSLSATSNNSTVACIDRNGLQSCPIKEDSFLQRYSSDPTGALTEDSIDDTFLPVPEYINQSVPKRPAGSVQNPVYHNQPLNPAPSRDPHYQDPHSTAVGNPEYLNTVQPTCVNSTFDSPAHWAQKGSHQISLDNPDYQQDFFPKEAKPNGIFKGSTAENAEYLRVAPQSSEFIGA

Molecule `CCOc1cc2ncnc(Nc3ccc(Oc4cc5nncn5cn4)c(C)c3)c2cc1NC(=O)/C(F)=C\[C@H]1CCCN1C` has an IC50 [1] of 86.3 nM, an IC50 [2] of 7.3 nM and a half-life at 1 µM [3] of 0.954 h. It also gave a microsomal CLint at 1 µM [4] of 24.2 µL/min/mg and an IC50 (BT-474) of 3.36 nM.

`C=CC(=O)Nc1cc2c(Nc3ccc(Oc4cc5nncn5cn4)c(C)c3)ncnc2cc1OCC` gave an IC50 [1] of 1.47 nM, an IC50 [2] of 1.93 nM and an IC50 (NCI-N87) of 51.9 nM. For the same molecule, the IC50 (BT-474) was 4.69 nM.

With `Cc1cc(Nc2ncnc3ccc(NC(=O)/C=C/CN(C)C)cc23)ccc1Oc1cc2nncn2cn1` the IC50 [1] was 2.13 nM, the IC50 [2] was 2.85 nM and the IC50 (NCI-N87) was 11.7 nM. The IC50 (BT-474) was 8.05 nM.

`CCOc1cc2ncnc(Nc3ccc(Oc4cc5nncn5cn4)c(C)c3)c2cc1NC(=O)/C(F)=C/[C@@H]1CCCN1C` gave an IC50 [1] of 32.1 nM, an IC50 [2] of 3.38 nM and a half-life at 1 µM [3] of 1.37 h. It also gave an IC50 (NCI-N87) of 1.55 nM, a microsomal CLint at 1 µM [4] of 16.9 µL/min/mg and an IC50 (BT-474) of 2.65 nM.

In the case of `Cc1cc(Nc2ncnc3cc(O)c(NC(=O)/C=C/[C@H]4CCCN4C)cc23)ccc1Oc1cc2nccn2cn1`, the IC50 [1] is reported as 1.11 nM, the IC50 [2] is reported as 1.06 nM and the IC50 (NCI-N87) is reported as 41.7 nM. The IC50 (BT-474) was 5.59 nM.

With `Cc1cc(Nc2ncnc3ccc(NC(=O)/C=C/[C@H]4CCCN4C)cc23)ccc1Oc1cc2nncn2cn1` the IC50 [1] was 1.19 nM, the IC50 [2] was 1.4 nM and the IC50 (NCI-N87) was 2.17 nM. The IC50 (BT-474) was 3.06 nM.

For `Cc1cc(Nc2c(C#N)cnc3ccc(NC(=O)/C=C/CN(C)C)cc23)ccc1Oc1cc2nncn2cn1`, the IC50 [1] was 20.7 nM, the IC50 [2] was 62.3 nM and the IC50 (NCI-N87) was 19.2 nM. For the same molecule, the IC50 (BT-474) was 14.9 nM.

In the case of `Cc1cc(Nc2ncnc3cc(O)c(NC(=O)/C=C/[C@H]4CCCN4C)cc23)ccc1Oc1ccn2cnnc2c1`, the IC50 [1] is reported as 22.7 nM, the IC50 [2] is reported as 6.31 nM and the IC50 (NCI-N87) is reported as 32.9 nM. The IC50 (BT-474) was 26.8 nM.

`CCOc1cc2ncnc(Nc3ccc(Oc4cc5nncn5cn4)c(C)c3)c2cc1NC(=O)/C(F)=C\[C@@H]1CCCN1C` showed a Tmax [5] of 0.42 h, an AUC(0-t) at 24 h [6] of 630 ng·h/mL and a bioavailability [7] of 34.4%. It also gave a bioavailability [8] of 13.7%, an IC50 [1] of 25.9 nM and a clearance [9] of 80.8 mL/min/kg. It also gave a Tmax [10] of 2.67 h, a half-life [11] of 4.14 h and a half-life [12] of 1.16 h. It also gave a Vd [13] of 4.49 L/kg, an IC50 [2] of 3.68 nM and a half-life [14] of 0.87 h. The AUC(0-t) at 24 h [15] was 170 ng·h/mL, the half-life [16] was 6.62 h and the Vd [17] was 23.6 L/kg. For the same molecule, the IC50 (NCI-N87) was 0.56 nM, the clearance [18] was 90 mL/min/kg and the IC50 (BT-474) was 1.75 nM. For the same molecule, the Cmax [19] was 30 ng/mL and the Cmax [20] was 290 ng/mL.

`C=C(F)C(=O)Nc1cc2c(Nc3ccc(Oc4cc5nncn5cn4)c(C)c3)ncnc2cc1OCC` gave an IC50 [1] of 9.6 nM, an IC50 [2] of 4.05 nM and a half-life at 1 µM [3] of 0.578 h. The IC50 (NCI-N87) was 6.56 nM, the microsomal CLint at 1 µM [4] was 40 µL/min/mg and the IC50 (BT-474) was 3.88 nM.

In the case of `CCOc1cc2ncnc(Nc3ccc(Oc4cc5nncn5cn4)c(C)c3)c2cc1NC(=O)/C=C/[C@H]1CCCN1C`, the Tmax [5] is reported as 1.67 h, the AUC(0-t) at 24 h [6] is reported as 1700 ng·h/mL and the bioavailability [7] is reported as 22.6%. For the same molecule, the bioavailability [8] was 47.5%, the IC50 [1] was 1.36 nM and the clearance [9] was 55.5 mL/min/kg. For the same molecule, the Tmax [10] was 4 h, the half-life [11] was 4.32 h and the half-life [12] was 4.38 h. It also gave a Vd [13] of 2.79 L/kg, an IC50 [2] of 1.67 nM and a half-life [14] of 3.07 h. For the same molecule, the AUC(0-t) at 24 h [15] was 2170 ng·h/mL, the half-life [16] was 2.09 h and the Vd [17] was 10.6 L/kg. The half-life at 1 µM [3] was 12.9 h, the IC50 (NCI-N87) was 1.12 nM and the microsomal CLint at 1 µM [4] was 1.81 µL/min/mg. For the same molecule, the clearance [18] was 22 mL/min/kg, the IC50 (BT-474) was 2.13 nM and the Cmax [19] was 280 ng/mL. For the same molecule, the Cmax [20] was 400 ng/mL.
